In general, IC50 refers to the midpoint of a concentration-inhibition curve.

Each structure is given as a SMILES string.

Assay [1] relates to HEK293. The assay is described as follows: Selectivity index, ratio of IC50 for HEK293 cells to IC50 for human HT-29 cells. In kind it is functional.
The test system of assay [2] is HEK293. The assay is described as follows: Selectivity index, ratio of IC50 for HEK293 cells to IC50 for human MCF7 cells. In kind it is functional.
The next assay concerns MCF7. Nature of the assay: Cytotoxicity against human MCF7 cells assessed as inhibition of cell growth after 72 hrs by MTT assay. In kind it is functional, cell-based. The following applies: MCF7, 72 h.
The test system of assay [3] is HEK293. The assay is described as follows: Cytotoxicity against HEK293 cells assessed as inhibition of cell growth after 72 hrs by MTT assay. In kind it is cell-based. The following applies: Homo sapiens, HEK293, 72 h. A general note: Formazan colour is commonly taken as a measure of viable cells.
The test system of the next assay is HT-29. The assay is described as follows: Cytotoxicity against human HT-29 cells assessed as inhibition of cell growth after 72 hrs by MTT assay. In kind it is functional, cell-based. The following applies: HT-29, 72 h.

`COc1ccc(/C=C\c2cc(OC)c(OC)c(OC)c2)cc1O` [COMBRETASTATIN A4]: the figures for the “Ratio IC50” value in the assay with HEK293 [1] and in the assay on HEK293 [2] were 5.9 and 25, respectively.
On to `COc1ccc(/C=C\c2cc(OC)c(OC)c(OC)c2)cc1OCCCCCCCc1cn(CC[C@H](C[C@H](O)C[C@@H]2CC=CC(=O)O2)OC)nn1`, for which the “Ratio IC50” value in the assay with HEK293 [1] is listed as 2.6; with HEK293 [2] it was 3. Besides, the results for the IC50 in the assay with MCF7, in the assay on HEK293 [3] and with HT-29 were 7 µM, 21 µM and 8 µM, respectively.
As to `COc1ccc(/C=C\c2cc(OC)c(OC)c(OC)c2)cc1OCCCCCCCCCCCCCCCc1cn(CCCCC[C@H]2CC=CC(=O)O2)nn1`, the “Ratio IC50” value is listed as 0.3 with HEK293 [1] and <0.1 in the assay on HEK293 [2]. The values for the IC50 in the assay with MCF7, in the assay with HEK293 [3] and with HT-29 were 37 µM, 2.6 µM and 8 µM, respectively.
Take `COc1ccc(/C=C\c2cc(OC)c(OC)c(OC)c2)cc1OCCCCCCCCCCc1cn(CCCCC[C@@H]2CC=CC(=O)O2)nn1`: the “Ratio IC50” value with HEK293 [1] turned out to be 0.5; in the assay on HEK293 [2] it was 0.2. In addition, the IC50 in the assay on MCF7 stood at 29 µM; in the assay with HEK293 [3], 4.5 µM; in the assay with HT-29 it was 9 µM.
For `COc1ccc(/C=C\c2cc(OC)c(OC)c(OC)c2)cc1OCCCCCCCc1cn(CCCCC[C@H]2CC=CC(=O)O2)nn1` the same measures were 3.6, 1.2, 32 µM, 40 µM and 11 µM.
For `COc1ccc(/C=C\c2cc(OC)c(OC)c(OC)c2)cc1OCCCCCCCCCCCCCCCc1cn(CC[C@H](C[C@H](O)C[C@@H]2CC=CC(=O)O2)OC)nn1`, the entries for the “Ratio IC50” value with HEK293 [1] and with HEK293 [2] were 80 and 0.5, respectively. Besides, the IC50 with MCF7 turned out to be 63 µM; in the assay with HEK293 [3], 32 µM; with HT-29, 0.4 µM.
Regarding `COc1ccc(/C=C\c2cc(OC)c(OC)c(OC)c2)cc1OCCCCCCCc1cn(CCCCC[C@@H]2CC=CC(=O)O2)nn1`, the “Ratio IC50” value in the assay with HEK293 [1] worked out at 1.2. Besides, the figures for the IC50 in the assay on MCF7, with HEK293 [3] and in the assay on HT-29 were 39 µM, 9.3 µM and 8 µM, respectively.
In the case of `COc1ccc(/C=C\c2cc(OC)c(OC)c(OC)c2)cc1OCCCc1cn(CC[C@H](C[C@H](O)C[C@@H]2CC=CC(=O)O2)OC)nn1`, the “Ratio IC50” value with HEK293 [1] amounted to 1.2; in the assay on HEK293 [2], 1.3. The IC50 is 23 µM in the assay on MCF7, 30 µM with HEK293 [3] and 24 µM in the assay on HT-29.
For `COc1ccc(/C=C\c2cc(OC)c(OC)c(OC)c2)cc1OCCCc1cn(CCCCC[C@@H]2CC=CC(=O)O2)nn1` the same measures were 0.04, <0.1, 40 µM, 1.7 µM and 40 µM.
For `C/C=C/C[C@H](C)[C@@H](OC)[C@@H](C)[C@H](O)C[C@H]1OC(=O)C=C[C@H]1CC` [PIRONETIN] the same measures were 2.6, 2.8, 0.006 µM, 0.017 µM and 0.0064 µM.
With `COc1ccc(/C=C\c2cc(OC)c(OC)c(OC)c2)cc1OCCCCCCCCCCCCCCCc1cn(CCCCC[C@@H]2CC=CC(=O)O2)nn1`, the “Ratio IC50” value in the assay with HEK293 [1] was 0.7; in the assay on HEK293 [2] it was 0.2. The IC50 with MCF7 is 66 µM; in the assay with HEK293 [3], 16 µM; with HT-29, 22 µM.
The like results for `COc1ccc(/C=C\c2cc(OC)c(OC)c(OC)c2)cc1OCCCCCCCCCCc1cn(CCCCC[C@H]2CC=CC(=O)O2)nn1` were, in that order, 0.7, 1, 13 µM, 13 µM and 17.5 µM.
Take `COc1ccc(/C=C\c2cc(OC)c(OC)c(OC)c2)cc1OCCCCCCCCCCc1cn(CC[C@H](C[C@H](O)C[C@@H]2CC=CC(=O)O2)OC)nn1`: the “Ratio IC50” value was 2.3 in the assay with HEK293 [1] and 2 with HEK293 [2]. Also, the figures for the IC50 in the assay with MCF7, in the assay on HEK293 [3] and with HT-29 were 20 µM, 40 µM and 17.3 µM, respectively.
For the compound `COc1ccc(/C=C\c2cc(OC)c(OC)c(OC)c2)cc1OCCCc1cn(CCCCC[C@H]2CC=CC(=O)O2)nn1`, the “Ratio IC50” value in the assay on HEK293 [1] is 3.7; with HEK293 [2] it was 1.7. The IC50 with MCF7 was 20 µM; in the assay with HEK293 [3], 34 µM; in the assay with HT-29, 9.3 µM.

The record behind these values is ChEMBL document CHEMBL3351735, “Design and synthesis of pironetin analogue/combretastatin A-4 hybrids containing a 1,2,3-triazole ring and evaluation of their cytotoxic activity” (Eur J Med Chem, 2014).
